Experiment [1] addresses hADORA1/CHO (hA1 expressing) cells (Homo sapiens (Human), UniProt P30542). The experiment in a line: cell-based. Particulars: FLIPR inhibition, 10 μM adenosine, read-out: cAMP & FLIPR IC50 (nM) hA1.
The target of another experiment is hA2a/CHO (Homo sapiens (Human), UniProt P29274). The experiment in a line: cAMP inhibition assay in hA2a/CHO cells, 10 μM adenosine.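 Further: compounds added to cells 30 min ahead of adenosine, then a further 30 min at 37 °C with adenosine before cAMP detection.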 The format is cell-based. To be noted: read-out: cAMP & FLIPR IC50 (nM) hA2a.
Sequence of hA2a/CHO (P29274 whole entry): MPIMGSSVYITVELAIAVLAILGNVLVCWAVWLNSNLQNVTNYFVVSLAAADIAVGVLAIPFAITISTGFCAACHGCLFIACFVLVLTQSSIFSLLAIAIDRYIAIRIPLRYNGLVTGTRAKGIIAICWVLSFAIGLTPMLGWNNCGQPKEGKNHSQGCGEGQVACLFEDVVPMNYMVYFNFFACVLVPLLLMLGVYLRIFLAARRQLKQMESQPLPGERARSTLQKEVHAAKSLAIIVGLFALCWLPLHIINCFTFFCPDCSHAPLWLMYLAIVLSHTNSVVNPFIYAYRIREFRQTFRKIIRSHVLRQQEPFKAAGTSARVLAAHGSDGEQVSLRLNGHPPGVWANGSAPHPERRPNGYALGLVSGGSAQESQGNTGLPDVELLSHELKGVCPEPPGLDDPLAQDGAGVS
For another experiment, the target named is hA2b/CHO (Homo sapiens (Human), UniProt P29275). In words: cAMP inhibition assay in hA2b/CHO cells, 10 μM adenosine.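 Further: cells exposed to compound 30 min at 37 °C, then stimulated with adenosine a further 30 min, cAMP read after 60 min at room temperature.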 The format is cell-based. Particulars: read-out: cAMP & FLIPR IC50 (nM) hA2b.
Sequence of hA2b/CHO (P29275 whole entry): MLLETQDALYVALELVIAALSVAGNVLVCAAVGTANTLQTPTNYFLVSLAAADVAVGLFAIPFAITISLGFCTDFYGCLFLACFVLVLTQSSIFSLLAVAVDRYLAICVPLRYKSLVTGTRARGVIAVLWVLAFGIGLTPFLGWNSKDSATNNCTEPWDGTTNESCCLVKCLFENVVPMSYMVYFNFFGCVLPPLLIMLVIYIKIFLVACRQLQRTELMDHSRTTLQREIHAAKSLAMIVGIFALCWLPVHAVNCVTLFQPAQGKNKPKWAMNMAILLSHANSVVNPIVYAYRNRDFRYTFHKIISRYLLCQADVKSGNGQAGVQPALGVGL
The target in the next experiment is mA2a/CHO (Mus musculus (Mouse), UniProt Q60613). In words: cAMP inhibition assay in mA2a/CHO cells, 10 μM adenosine.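 Further: compounds preincubated 30 min at 37 °C before the adenosine challenge, then 30 min further stimulation, readout after 60 min detection reagent incubation at room temperature in 384-well plates.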 The format is cell-based. Particulars: read-out: cAMP & FLIPR IC50 (nM) mA2a.
Sequence of mA2a/CHO (Q60613 whole entry): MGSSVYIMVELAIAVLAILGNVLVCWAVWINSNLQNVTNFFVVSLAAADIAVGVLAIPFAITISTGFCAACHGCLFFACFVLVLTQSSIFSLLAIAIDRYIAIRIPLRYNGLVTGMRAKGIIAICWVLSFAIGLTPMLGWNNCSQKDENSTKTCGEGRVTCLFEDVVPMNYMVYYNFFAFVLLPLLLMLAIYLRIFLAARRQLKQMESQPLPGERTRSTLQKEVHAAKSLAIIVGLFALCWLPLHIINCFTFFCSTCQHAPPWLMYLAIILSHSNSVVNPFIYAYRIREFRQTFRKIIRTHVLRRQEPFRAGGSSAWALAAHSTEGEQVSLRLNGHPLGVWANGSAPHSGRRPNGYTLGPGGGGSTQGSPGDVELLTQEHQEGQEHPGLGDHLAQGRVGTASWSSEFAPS

Sequence of hADORA1/CHO (hA1 expressing) cells (P30542 whole entry): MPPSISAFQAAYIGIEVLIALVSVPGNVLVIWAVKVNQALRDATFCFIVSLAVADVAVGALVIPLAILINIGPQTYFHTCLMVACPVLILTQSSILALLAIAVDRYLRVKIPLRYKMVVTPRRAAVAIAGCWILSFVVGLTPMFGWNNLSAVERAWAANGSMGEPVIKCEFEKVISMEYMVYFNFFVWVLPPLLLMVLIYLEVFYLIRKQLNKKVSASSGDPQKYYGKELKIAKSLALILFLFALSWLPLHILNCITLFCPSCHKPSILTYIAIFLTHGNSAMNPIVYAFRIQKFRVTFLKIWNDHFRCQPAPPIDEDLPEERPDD
Experimental for hA2a/CHO: (§1) hA2a/CHO, hA2b/CHO, hA3/CHO and mA2a/CHO (Genscript) were plated at 5×10^3 cells/well into 384-well polystyrene plates at the day of experiment. Compounds were pre-incubated with cells for 30 min at 37° C., 5% CO2. Then 10 μM adenosine was added to the cells and incubated for 30 min at 37° C., 5% CO2. Detection reagent (CISBIO) was added and the plates were incubated for 60 min at room temperature. The signal was captured by Envision.
Experimental for hA2b/CHO: as §1
Experimental for mA2a/CHO: as §1

What is called IC50 is the midpoint of a concentration-inhibition curve. As for `Nc1nc(-c2ncco2)c(-c2ccc(=O)n(CCCO)c2)nc1C(=O)NCc1c(F)cccc1F` [Example 102, 3-amino-N-[(2,6-difluorophenyl)methyl]-6-[1-(3-hydroxypropyl)-6-oxo-1,6-dihydropyridin-3-yl]-5-(1,3-oxazol-2-yl)pyrazine-2-carboxamide], the IC50 in experiment [1] turned out to be 78 nM; on hA2a/CHO, 9.9 nM; on hA2b/CHO it was 120 nM; on mA2a/CHO, 48 nM.

As to `Cc1cnc2ccc(-c3nc(C(=O)NCC4CC(=O)N(C)C4)c(N)nc3-c3ncco3)cn12` (single isomer, unassigned; isomer 2) [Example 210, 3-amino-N-((1-methyl-5-oxopyrrolidin-3-yl)methyl)-6-(3-methylimidazo[1,2-a]pyridin-6-yl)-5-(oxazol-2-yl)pyrazine-2-carboxamide (isomer 2)], the IC50 came to 14700 nM in experiment [1], 11 nM on hA2a/CHO, 972 nM on hA2b/CHO and 88 nM at mA2a/CHO.

Regarding `Cc1cnc2ccc(-c3nc(C(=O)NCCc4nccn4C)c(N)nc3-c3ncco3)cn12` [Example 205, 3-amino-N-(2-(1-methyl-1H-imidazol-2-yl)ethyl)-6-(3-methylimidazo[1,2-a]pyridin-6-yl)-5-(oxazol-2-yl)pyrazine-2-carboxamide], the IC50 in experiment [1] is 153 nM; at hA2a/CHO it was 2 nM; at hA2b/CHO, 67 nM; on mA2a/CHO, 7.5 nM.

As for `Cc1cnc2ccc(-c3nc(C(=O)NCc4cccc(N5CCN(C)CC5)n4)c(N)nc3-c3ncco3)cn12` [Example 112, 3-amino-6-(3-methylimidazo[1,2-a]pyridin-6-yl)-N-((6-(4-methylpiperazin-1-yl)pyridin-2-yl)methyl)-5-(oxazol-2-yl)pyrazine-2-carboxamide], the IC50 in experiment [1] turned out to be 10000 nM; on hA2a/CHO it was 1.3 nM; on hA2b/CHO, 502 nM; on mA2a/CHO, 18 nM.

Take `Cc1cc(-c2nc(C(=O)NCc3c(F)cccc3OC(F)F)c(N)nc2-c2ccc(F)cc2)cc(C)n1` [Example 85, 3-amino-N-(2-(difluoromethoxy)-6-fluorobenzyl)-6-(2,6-dimethylpyridin-4-yl)-5-(4-fluorophenyl)pyrazine-2-carboxamide]: the IC50 was 299 nM in experiment [1], 2.5 nM on hA2a/CHO, 418 nM at hA2b/CHO and 36 nM at mA2a/CHO.

As for `Cc1cnc2ccc(-c3nc(C(=O)NCCN(C)C)c(N)nc3-c3ncco3)cn12` [Example 153, 3-amino-N-(2-(dimethylamino)ethyl)-6-(3-methylimidazo[1,2-a]pyridin-6-yl)-5-(oxazol-2-yl)pyrazine-2-carboxamide], the IC50 in experiment [1] came out at 10000 nM; on hA2a/CHO, 19 nM; at hA2b/CHO, 592 nM; on mA2a/CHO it was 120 nM.

On to `Cn1cnc2ccc(-c3nc(C(=O)NCc4ncccc4OCCO)c(N)nc3-c3ccc(F)cc3)cc21` [Example 113, 3-amino-5-(4-fluorophenyl)-N-[[3-(2-hydroxyethoxy)pyridin-2-yl]methyl]-6-(1-methyl-1H-1,3-benzodiazol-6-yl)pyrazine-2-carboxamide], for which the half-maximal inhibitory concentration (IC50) turned out to be 70 nM in experiment [1], 0.4 nM at hA2a/CHO, 68 nM at hA2b/CHO and 1 nM on mA2a/CHO.

Regarding `Cc1cc(-c2nc(C(=O)NCc3ccccc3Cl)c(N)nc2-c2ccc(F)cc2)cc(C)n1` [Example 79, 3-amino-N-(2-chlorobenzyl)-6-(2,6-dimethylpyridin-4-yl)-5-(4-fluorophenyl) pyrazine-2-carboxamide], the IC50 in experiment [1] is 597 nM; on hA2a/CHO, 33 nM; at hA2b/CHO, at least 10000 nM; at mA2a/CHO it was 540 nM.

As for `Cc1cc(-c2nc(C(=O)NCc3ccccc3F)c(N)nc2-c2ccc(F)cc2)cc(C)n1` [Example 78, 3-amino-6-(2,6-dimethylpyridin-4-yl)-N-(2-fluorobenzyl)-5-(4-fluorophenyl)pyrazine-2-carboxamide], the IC50 in experiment [1] was 2730 nM; on hA2a/CHO it was 44 nM; on hA2b/CHO, at least 10000 nM; at mA2a/CHO it was 934 nM.

For `COC1CCC(NC(=O)c2nc(-c3ccc4ncc(C)n4c3)c(-c3ncco3)nc2N)CC1` (stereo not drawn) [Example 249, 3-amino-N-(4-methoxycyclohexyl)-6-(3-methylimidazo[1,2-a]pyridin-6-yl)-5-(oxazol-2-yl)pyrazine-2-carboxamide], the IC50 in experiment [1] was above 10000 nM; on hA2a/CHO it was 5.7 nM; on hA2b/CHO, 423 nM; on mA2a/CHO it was 50 nM.

Regarding `Cc1cnc2ccc(-c3nc(C(=O)NC[C@H]4CC(F)(F)CN4C)c(N)nc3-c3ncco3)cn12` [Example 162, (R)-3-amino-N-((4,4-difluoro-1-methylpyrrolidin-2-yl)methyl)-6-(3-methylimidazo[1,2-a]pyridin-6-yl)-5-(oxazol-2-yl)pyrazine-2-carboxamide], the IC50 in experiment [1] turned out to be 794 nM; on hA2a/CHO it was 0.71 nM; at hA2b/CHO, 147 nM; at mA2a/CHO, 8.12 nM.

Consider `Cc1cnc2ccc(-c3nc(C(=O)NCC4(C)CCOC4)c(N)nc3-c3ncco3)cn12` (single isomer, unassigned; isomer 2) [Example 252, 3-amino-6-(3-methylimidazo[1,2-a]pyridin-6-yl)-N-((3-methyltetrahydrofuran-3-yl)methyl)-5-(oxazol-2-yl)pyrazine-2-carboxamide (isomer 2)], for which the IC50 in experiment [1] is 260 nM; on hA2a/CHO it was 2.9 nM; on hA2b/CHO, 821 nM; on mA2a/CHO it was 30 nM.

`CNc1ccc(F)c(CNC(=O)c2nc(-c3ccc(=O)n(C)c3)c(-c3ncco3)nc2N)n1` [Example 50, 3-amino-N-[[3-fluoro-6-(methylamino)pyridin-2-yl]methyl]-6-(1-methyl-6-oxo-1,6-dihydropyridin-3-yl)-5-(1,3-oxazol-2-yl)pyrazine-2-carboxamide]: the IC50 in experiment [1] was 90 nM; on hA2a/CHO it was 33 nM; at hA2b/CHO, 249 nM; on mA2a/CHO it was 85 nM.

In the case of `CC(O)Cn1cc(-c2nc(C(=O)NCc3c(F)cccc3F)c(N)nc2-c2ncco2)ccc1=O` (single isomer, unassigned) [Example 108, 3-amino-N-(2,6-difluorobenzyl)-6-(1-(2-hydroxypropyl)-6-oxo-1,6-dihydropyridin-3-yl)-5-(oxazol-2-yl)pyrazine-2-carboxamide], the IC50 in experiment [1] amounted to 55 nM; on hA2a/CHO, 0.6 nM; on hA2b/CHO it was 132 nM; on mA2a/CHO, 3.6 nM.

Regarding `COc1cccc(CNC(=O)c2nc(-c3ccc(=O)n(C)c3)c(-c3ncco3)nc2N)n1` [Example 17], the 50% inhibitory concentration (IC50) is 951 nM in experiment [1], 117 nM at hA2a/CHO, at least 10000 nM on hA2b/CHO and 132 nM at mA2a/CHO.

`COc1ccccc1CNC(=O)c1nc(-c2cc(C)nc(C)c2)c(-n2nccc2C)nc1N` [Example 74, 3-amino-6-(2,6-dimethylpyridin-4-yl)-N-(2-methoxybenzyl)-5-(5-methyl-1H-pyrazol-1-yl)pyrazine-2-carboxamide]: the IC50 in experiment [1] is 216 nM; at hA2a/CHO, 44 nM; at hA2b/CHO it was at least 10000 nM; at mA2a/CHO, 1950 nM.

For `Cn1cc(-c2nc(C(=O)NCc3c(F)cccc3Cl)c(N)nc2-c2ncco2)ccc1=O` [Example 110, 3-amino-N-(2-chloro-6-fluorobenzyl)-6-(1-methyl-6-oxo-1,6-dihydropyridin-3-yl)-5-(oxazol-2-yl)pyrazine-2-carboxamide], the IC50 was determined as 31 nM in experiment [1], 0.7 nM on hA2a/CHO, 11 nM at hA2b/CHO and 1 nM on mA2a/CHO.

As to `Cn1cc(-c2nc(CNC(=O)c3c(F)cccc3C(F)(F)F)c(N)nc2-c2ccc(F)cc2)ccc1=O` [Example 7, N-[[3-amino-5-(4-fluorophenyl)-6-(1-methyl-6-oxo-1,6-dihydropyridin-3-yl)pyrazin-2-yl]methyl]-2-fluoro-6-(trifluoromethyl)benzamide], the IC50 in experiment [1] was 98 nM; on hA2a/CHO, 166 nM; on hA2b/CHO, 3860 nM; at mA2a/CHO, 237 nM.

For `COC(C)CNC(=O)c1nc(-c2ccc3ncc(C)n3c2)c(-c2ncco2)nc1N` (single isomer, unassigned; isomer 1) [Example 248, 3-amino-N-(2-methoxypropyl)-6-(3-methylimidazo[1,2-a]pyridin-6-yl)-5-(oxazol-2-yl)pyrazine-2-carboxamide (isomer 1)], the IC50 turned out to be 121 nM in experiment [1], 2.9 nM on hA2a/CHO, 140 nM on hA2b/CHO and 18 nM at mA2a/CHO.

Turning to `COC[C@@H](C)NC(=O)c1nc(-c2ccc3ncc(C)n3c2)c(-c2ncco2)nc1N` [Example 159, (R)-3-amino-N-(1-methoxypropan-2-yl)-6-(3-methylimidazo[1,2-a]pyridin-6-yl)-5-(oxazol-2-yl)pyrazine-2-carboxamide], the IC50 in experiment [1] is above 10000 nM; at hA2a/CHO, 5.31 nM; on hA2b/CHO, 1640 nM; on mA2a/CHO, 13.2 nM.

On to `CN(C)c1cccc(CNC(=O)c2nc(-c3ccc(=O)n(C)c3)c(-c3ncco3)nc2N)n1` [Example 15, 3-amino-N-[[6-(dimethylamino)pyridin-2-yl]methyl]-6-(1-methyl-6-oxo-1,6-dihydropyridin-3-yl)-5-(1,3-oxazol-2-yl)pyrazine-2-carboxamide], for which the IC50 is 804 nM in experiment [1], 39 nM at hA2a/CHO, at least 10000 nM at hA2b/CHO and 86 nM on mA2a/CHO.

Source of the values: US10898481B2 (priority 2018, dated 2021).
